From US10584115B2, “Substituted pyridine and pyrazine BMI-1 inhibitors” (PTC Therapeutics, Inc., priority 2013, dated 2020)
Structures can show the parent of a compound that is named as a salt. Where two headings read alike, the source gives them in different places.

System: Bmi-1 protein
Assay: Sandwich ELISA Assay (Bmi-1 protein level in HT-1080 cells after compound treatment)
Type: cell-based
Procedure: Cell Seeding and Compound Treatment (Day 1):
HT-1080 cells were seeded at 8000 cells/well (50 μL) in 96-well tissue culture plates. After the cells became adherent (3-4 hours), 2× diluted stocks of test compounds in 50 μL DMEM containing 1% DMSO (final DMSO concentration was 0.5%) were added and the plates were incubated at 37° C. under 5% CO2 for 40-48 hours.
ELISA Plate First Antibody Preparation (Day 2):
The First Antibody (Millipore Mouse, monoclonal to mouse Bmi-1, clone F6, catalog #05-637) diluted to […] in PBS was added (100 μL) to each well of a Nunc MaxiSorp 96-well ELISA plate. The plate was covered with a plate seal and allowed to stand overnight.
Cell Lysate Preparation (Day 3):
Fresh Lysis buffer (1×) was prepared on the day of the assay as follows: 1 mM EDTA, 150 mM NaCl, 0.5% Triton-X 100, 10 mM NaF, 20 mM B-Glycerophosphate, 1 mM DTT (in PBS, pH 7.2-7.4) and HALT protease inhibitor cocktail (lx) (Pierce #78410).
A standard curve was prepared at the following Bmi-1 concentrations: 8000, 4000, 2000, 1000, 500, 250, 125 and 0 pg/mL. The Bmi-1 Recombinant Protein Standard (Novus Biologicals PCGF4 Recombinant Protein (P01), catalog # H00000648-P01) used to prepare the standard curve was stored at −80° C. On first thaw, the Recombinant Protein Standard was diluted to 10 μg/L in Blocking Buffer (1% BSA in PBS; BSA: Fisher Scientific Catalog #1600-100). Aliquots were taken and refrozen at −80° C. The aliquots may be kept at 4° C. and reused after first thaw, but only within 1-2 weeks. The Recombinant Protein Standard contains a GST-fusion tag that appears at approximately 70 Kda on Western Blot.
The prepared ELISA plate was washed 3× with Wash Buffer (0.05% Tween-20 in PBS). The final wash was removed from the plate and the plate was blotted dry. Blocking Buffer (300 μL) (1% BSA in PBS) was added to each well. The plate was covered with a plate seal and incubated at room temperature for 1 hour. The blocked plate was washed 3× with Wash Buffer, then the final wash was removed and the plate was blotted dry. The previously prepared samples and standards were added ([…]) and the plate was covered with a plate seal and incubated at 4° C. overnight.
The prepared ELISA plate was removed from incubation and allowed to stand at room temperature for 30 minutes, then washed and blotted dry. The Second Antibody (Cell Signaling Rabbit anti-Bmi-1, Cat #2830) diluted to 1:600 in Blocking Buffer was added (100 μL) to each well, except as needed for background control wells. The plate was covered with a plate seal and incubated for 1.5 hrs at room temperature.
The ELISA plate was washed and blotted dry as previously described. The Third Antibody (Cell Signaling HRP conjugated anti-rabbit IgG (CellSignaling, Cat #:7074) diluted to 1:300 in Blocking Buffer was added (100 μL) to each well, except as needed for background control wells. The plate was incubated for 1 hr at room temperature.
The plate was washed and blotted dry, then a previously prepared TMB substrate (TMB substrate kit, Pierce catalog #34021) (prepared by mixing kit reagents 1:1) (100 μL) was added per well. The plate was incubated for 20-30 minutes at room temperature in the dark, then Stop Solution (2 M sulfuric acid in water) (50 μL) was added per well. The plates were read at OD450 (experimental) and OD570 (reference).

[1] = Table 1, Bmi-1 sandwich ELISA, read-out: ELISA EC50 value for Bmi-1 protein
[2] = read-out: ELISA EC50 value for Bmi-1 protein, Table 1, Bmi-1 sandwich ELISA

EC50 [1] [nM] | SMILES | EC50 [2] [nM]
10 to 100 | Cc1nc2ccccc2n1-c1cncc(Nc2ccc(CN)cc2)n1 [154a, N-[4-(aminomethyl)phenyl]-6-(2-methyl-1H-benzimidazol-1-yl)pyrazin-2-amine trifluoroacetate] | 
10 to 100 | Nc1cc(Nc2ccc(C(F)(F)F)cc2)nc(-c2c(CO)nc3ccccn23)c1 [289a, [3-(4-amino-6-{[4-(trifluoromethyl)phenyl]amino}pyridin-2-yl)imidazo[1,2-a]pyridin-2-yl)methanol hydrochloride (1:2)] | 
1 to 10 | COc1ccc(Nc2cccc(-c3c(C(F)(F)F)nc4ccccn34)n2)cc1Cl [Cpd 3, N-(3-chloro-4-methoxyphenyl)-6-[2-(trifluoromethyl)imidazo[1,2-a]pyridin-3-yl]pyridin-2-amine] | 
1 to 10 | COc1ccc(Nc2cccc(-c3c(C(F)(F)F)nc4ccccn34)n2)cc1 [Cpd 4, N-(4-methoxyphenyl)-6-[2-(trifluoromethyl)imidazo[1,2-a]pyridin-3-yl]pyridin-2-amine] | 
1 to 10 | FC(F)(F)c1ccc(Nc2cncc(-c3c(C(F)(F)F)nc4ccccn34)n2)cc1 [Cpd 6, 6-[2-(trifluoromethyl)imidazo[1,2-a]pyridin-3-yl]-N-[4-(trifluoromethyl)phenyl]pyrazin-2-amine] | 
< 1 | COc1ccc(Nc2cncc(-c3c(C(F)(F)F)nc4ccccn34)n2)cc1F [Cpd 7, N-(3-fluoro-4-methoxyphenyl)-6-[2-(trifluoromethyl)imidazo[1,2-a]pyridin-3-yl]pyrazin-2-amine] | 
1 to 10 | COc1ccc(Nc2cccc(-c3c(C(F)(F)F)nc4ccccn34)n2)cc1F [Cpd 8, N-(3-fluoro-4-methoxyphenyl)-6-[2-(trifluoromethyl)imidazo[1,2-a]pyridin-3-yl]pyridin-2-amine] | 
100 to 3000 | Fc1ccc(Nc2cncc(-c3c(C(F)(F)F)nc4ccccn34)n2)cc1 [Cpd 9, N-(4-fluorophenyl)-6-[2-(trifluoromethyl)imidazo[1,2-a]pyridin-3-yl]pyrazin-2-amine] | 
1 to 10 | FC(F)(F)c1nc2ccccn2c1-c1cncc(Nc2ccc(Cl)cc2)n1 [Cpd 10, N-(4-chlorophenyl)-6-[2-(trifluoromethyl)imidazo[1,2-a]pyridin-3-yl]pyrazin-2-amine] | 
10 to 100 | FC(F)(F)Oc1ccc(Nc2cncc(-c3c(C(F)(F)F)nc4ccccn34)n2)cc1 [Cpd 11, N-[4-(trifluoromethoxy)phenyl]-6-[2-(trifluoromethyl)imidazo[1,2-a]pyridin-3-yl]pyrazin-2-amine] | 
10 to 100 | FC(F)(F)Oc1ccc(Nc2cccc(-c3c(C(F)(F)F)nc4ccccn34)n2)cc1 [Cpd 16, N-[4-(trifluoromethoxy)phenyl]-6-[2-(trifluoromethyl)imidazo[1,2-a]pyridin-3-yl]pyridin-2-amine] | 
1 to 10 | FC(F)(F)c1nc2ccccn2c1-c1cccc(Nc2ccc(Cl)cc2)n1 [Cpd 17, N-(4-chlorophenyl)-6-[2-(trifluoromethyl)imidazo[1,2-a]pyridin-3-yl]pyridin-2-amine] | 
 | FC(F)(F)c1ccc(Nc2cccc(-c3c(C(F)(F)F)nc4ccccn34)n2)cc1 [Cpd 18, 6-[2-(trifluoromethyl)imidazo[1,2-a]pyridin-3-yl]-N-[4-(trifluoromethyl)phenyl]pyridin-2-amine] | 1 to 10
1 to 10 | COc1ccc(Nc2cncc(-c3c(C(F)(F)F)nc4ccccn34)n2)cc1Cl [Cpd 22, N-(3-chloro-4-methoxyphenyl)-6-[2-(trifluoromethyl)imidazo[1,2-a]pyridin-3-yl]pyrazin-2-amine] | 
10 to 100 | N#Cc1ccc(Nc2cncc(-c3c(C(F)(F)F)nc4ccccn34)n2)cc1 [Cpd 23] | 
< 1 | FC(F)Oc1ccc(Nc2cncc(-c3c(C(F)(F)F)nc4ccccn34)n2)cc1 [Cpd 24, N-[4-(difluoromethoxy)phenyl]-6-[2-(trifluoromethyl)imidazo[1,2-a]pyridin-3-yl]pyrazin-2-amine] | 

EC50 [1] [nM] | SMILES | EC50 [2] [nM]
1 to 10 | Fc1cc(Nc2cncc(-c3c(C(F)(F)F)nc4ccccn34)n2)ccc1Cl [Cpd 25, N-(4-chloro-3-fluorophenyl)-6-[2-(trifluoromethyl)imidazo[1,2-a]pyridin-3-yl]pyrazin-2-amine] | 
100 to 3000 | Fc1ccc(Nc2cncc(-c3c(C(F)(F)F)nc4ccccn34)n2)cc1F [Cpd 26, N-(3,4-difluorophenyl)-6-[2-(trifluoromethyl)imidazo[1,2-a]pyridin-3-yl]pyrazin-2-amine] | 
1 to 10 | FC(F)Oc1ccc(Nc2cccc(-c3c(C(F)(F)F)nc4ccccn34)n2)cc1 [Cpd 27, N-[4-(difluoromethoxy)phenyl]-6-[2-(trifluoromethyl)imidazo[1,2-a]pyridin-3-yl]pyridin-2-amine] | 
10 to 100 | FC(F)(F)c1nc2ccccn2c1-c1cncc(Nc2ccc(Cl)c(Cl)c2)n1 [Cpd 29, N-(3,4-dichlorophenyl)-6-[2-(trifluoromethyl)imidazo[1,2-a]pyridin-3-yl]pyrazin-2-amine] | 
1 to 10 | Fc1cc(Nc2cncc(-c3c(C(F)(F)F)nc4ccccn34)n2)ccc1Br [Cpd 30, N-(4-bromo-3-fluorophenyl)-6-[2-(trifluoromethyl)imidazo[1,2-a]pyridin-3-yl]pyrazin-2-amine] | 
10 to 100 | FC(F)(F)c1nc2ccccn2c1-c1cncc(Nc2ccc(Br)c(Cl)c2)n1 [Cpd 31, N-(4-bromo-3-chlorophenyl)-6-[2-(trifluoromethyl)imidazo[1,2-a]pyridin-3-yl]pyrazin-2-amine] | 
 | COc1ccc(Nc2cccc(-n3c(C)nc4ccccc43)n2)cc1 [Cpd 32, N-(4-methoxyphenyl)-6-(2-methyl-1H-benzimidazol-1-yl)pyridin-2-amine] | 1 to 10
 | COc1ccc(Nc2cccc(-n3c(C(F)(F)F)nc4ccccc43)n2)cc1 [Cpd 33, N-(4-methoxyphenyl)-6-[2-(trifluoromethyl)-1H-benzimidazol-1-yl]pyridin-2-amine] | 10 to 100
 | COc1ccc(Nc2ccc(C#N)c(-c3c(C(F)(F)F)nc4ccccn34)n2)cc1 [Cpd 34, 6-[(4-methoxyphenyl)amino]-2-[2-(trifluoromethyl)imidazo[1,2-a]pyridin-3-yl]pyridine-3-carbonitrile] | 100 to 3000
10 to 100 | Cc1nc2ccccc2n1-c1cccc(Nc2ccc(OC(F)F)cc2)n1 [Cpd 35, N-[4-(difluoromethoxy)phenyl]-6-(2-methyl-1H-benzimidazol-1-yl)pyridin-2-amine] | 
100 to 3000 | Cc1nc2ccccc2n1-c1cccc(Nc2ccc(OC(F)(F)F)cc2)n1 [Cpd 36, 6-(2-methyl-1H-benzimidazol-1-yl)-N-[4-(trifluoromethoxy)phenyl]pyridin-2-amine] | 
10 to 100 | Cc1nc2ccccc2n1-c1cccc(Nc2ccc(C(F)(F)F)cc2)n1 [Cpd 37, 6-(2-methyl-1H-benzimidazol-1-yl)-N-[4-(trifluoromethyl)phenyl]pyridin-2-amine] | 
10 to 100 | FC(F)Oc1ccc(Nc2cccc(-n3c(C(F)(F)F)nc4ccccc43)n2)cc1 [Cpd 38, N-[4-(difluoromethoxy)phenyl]-6-[2-(trifluoromethyl)-1H-benzimidazol-1-yl]pyridin-2-amine] | 
100 to 3000 | FC(F)(F)Oc1ccc(Nc2cccc(-n3c(C(F)(F)F)nc4ccccc43)n2)cc1 [Cpd 39, N-[4-(trifluoromethoxy)phenyl]-6-[2-(trifluoromethyl)-1H-benzimidazol-1-yl]pyridin-2-amine] | 
100 to 3000 | FC(F)(F)c1ccc(Nc2cccc(-n3c(C(F)(F)F)nc4ccccc43)n2)cc1 [Cpd 40, 6-[2-(trifluoromethyl)-1H-benzimidazol-1-yl]-N-[4-(trifluoromethyl)phenyl]pyridin-2-amine] | 
 | COc1ccc(Nc2cc(C#N)cc(-c3c(C(F)(F)F)nc4ccccn34)n2)cc1 [Cpd 42, 2-[(4-methoxyphenyl)amino]-6-[2-(trifluoromethyl)imidazo[1,2-a]pyridin-3-yl]pyridine-4-carbonitrile] | 1 to 10
